How the values were obtained:
[1] = molecular target: O-phosphoserine sulfhydrylase from Mycolicibacterium smegmatis (OPSSmsm), SEQ ID NO: 104 (Mycolicibacterium smegmatis, UniProt A0R1X2); assay: O-phosphoserine sulfhydrylase (OPSS) activity, cysteine formation (Gaitonde method), kinetic parameters of purified enzyme; format: biochemical, Mycolicibacterium smegmatis (strain ATCC 700084 / mc(2)155)
[2] = test system: O-phosphoserine sulfhydrylase from Dethiobacter alkaliphilus (OPSSdal), SEQ ID NO: 106; assay: as above; format: biochemical, Dethiobacter alkaliphilus AHT 1
Method: This reaction solution, except the enzymes, were incubated at 30°C for 10 min. After then, 0.5 to 1 µg of purified OPSS was added to the reaction solution, incubated at 30°C. 100 µl of the enzyme reaction solutions were taken after 5 min, 10 min, 15 min and mixed with 50 µl cold 1.5 M TCA to stop the enzymatic reaction. The cysteine concentrations in the enzyme reaction solution were quantified by measuring absorbance at OD560 nm according to Gaitonde method (Gaitonde,M.K. (1967), Biochem. J. 104, 627-633).
Kinetic parameters were determined using Sigmaplot.

[3] = molecular target: O-phosphoserine sulfhydrylase from Geobacter sulfurreducens (OPSSgsu), SEQ ID NO: 2 (Geobacter sulfurreducens, UniProt Q747V7); assay: as above; format: biochemical; settings: pH 7.5, 30°C; read-out: Km (Na2S)
[4] = molecular target: O-phosphoserine sulfhydrylase from Rhodothermus marinus (OPSSrma), SEQ ID NO: 4 (Rhodothermus marinus, UniProt D0MJA5); assay: as above; format: biochemical, Rhodothermus marinus (strain ATCC 43812 / DSM 4252 / R-10); settings: pH 7.5, 30°C; read-out: Km (Na2S)
[5] = substrate: N[C@@H](COP(=O)(O)O)C(=O)O; assay: purified protein, by the assay type; settings: fixed Na2S 50 mM, O-phosphoserine 0.5-100 mM, 100 mM Hepes pH 7.5, 30°C

O-phosphoserine sulfhydrylase from Mycolicibacterium smegmatis (OPSSmsm), SEQ ID NO: 104, sequence (A0R1X2 1-323): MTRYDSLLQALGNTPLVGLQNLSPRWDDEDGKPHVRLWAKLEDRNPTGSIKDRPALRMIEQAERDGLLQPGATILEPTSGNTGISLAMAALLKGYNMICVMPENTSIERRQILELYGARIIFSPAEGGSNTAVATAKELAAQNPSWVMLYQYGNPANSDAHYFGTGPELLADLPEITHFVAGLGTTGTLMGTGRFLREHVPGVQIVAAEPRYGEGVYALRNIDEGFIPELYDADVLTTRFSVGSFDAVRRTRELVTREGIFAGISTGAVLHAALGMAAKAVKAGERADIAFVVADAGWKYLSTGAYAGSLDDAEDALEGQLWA

N[C@@H](COP(=O)(O)O)C(=O)O [OPS, O-phosphoserine]
inhibition at 20000 µM ([1]; read-out: activity lost (inhibition by O-Phosphoserine)): 50%
kcat ([2]; calculated from the O-phosphoserine saturation curves, Na2S 50 mM, pH 7.5, 30°C): 19 s⁻¹
Km ([2]; read-out: Km (OPS), fixed Na2S 50 mM, O-phosphoserine 0.5-100 mM, 100 mM Hepes pH 7.5, 30°C): 17 mM

Na2S
Km ([1]; pH 7.5, 30°C, read-out: Km (Na2S)): 1.4 mM
Km [3]: 16 mM
Km [4]: 13 mM

B1: O-phosphoserine sulfhydrylase from Geobacter sulfurreducens (OPSSgsu), SEQ ID NO: 2 (Geobacter sulfurreducens PCA) (protein)
chain: MEHPPFSLAGSIGATPLVELRHLNPNPRVRILAKLEGNNVGGSVKDRPALYMLAKAEESGELVPEKTILEPTSGNTGIALAMLGTVKGYRVKLVMPACVSLERRAVLEAYGAELVLSPHDEATDGAIRLAHRILEEEPDRYYMPNQYANPNNPLAHYETTAPEIFRDTGGAVDFFVAGMGTGGTLMGTSRYFREKKPSVRIVGVEPRLGHKVQGLKNMQEAIVPPIYHPEALDLKLTVHDEPAFDTARELAAREGLFVGMSSGAAVAGAVQVARDAPAGSTIVVLLPDRGDRYLSTVLFRSVCGKCPP
Km ([5]; other: OPSSgsu): 16 mM
kcat ([5]; other: OPSSgsu): 58 s⁻¹

B2: O-phosphoserine sulfhydrylase from Rhodothermus marinus (OPSSrma), SEQ ID NO: 4 (Rhodothermus marinus DSM 4252) (protein)
chain: MFAETLQTTTNTRPLSGTELIRAIGHTPLIRLRRVARHLPETVAVYVKAEHLNPGGSVKDRPALRMVLEGLRSGALREGRALIDATSGNTGIAYAMLGAALGFPVTLAMPANASPERKRILKAYGAELILTDPMEGTDGAQRYVRELVQQEPDRYFYPDQYNNDANWRAHYEGTGIEILEQTGGRVTHFVAGLGTTGTFVGVSRRLKAHNPAIRCYALQPDSPLHGLEGLKHLETAIVPGIYDPSLVDEHLSCSTEEAFEMTRRLAREEGLFVGPSSGANVAAALHIAEQLDRGVVVTVLCDTGARYLSEPFWEETP
Km ([5]; other: OPSSrma): 6 mM
kcat ([5]; other: OPSSrma): 47 s⁻¹

From patent EP4467640A1, “MICROORGANISM AND METHOD FOR THE IMPROVED PRODUCTION OF CYSTEINE AND/OR DERIVATIVES THEREOF” (Metabolic Explorer, priority 2023, dated 2024)
